According to article PMC5826244 (OncoTargets and therapy, 2018):

Assays:
[1] = test system: LH-RH-I receptors expressed in rat pituitaries; settings: cited from earlier work
[2] = target: T1, LH-RH-I receptors, membranes of human UM models (Homo sapiens, UniProt P30968); test: Radioligand binding / ligand competition, human UM samples; settings: increasing concentrations 10^−12–10^−6 M; data not shown
T1 sequence (P30968 1-328): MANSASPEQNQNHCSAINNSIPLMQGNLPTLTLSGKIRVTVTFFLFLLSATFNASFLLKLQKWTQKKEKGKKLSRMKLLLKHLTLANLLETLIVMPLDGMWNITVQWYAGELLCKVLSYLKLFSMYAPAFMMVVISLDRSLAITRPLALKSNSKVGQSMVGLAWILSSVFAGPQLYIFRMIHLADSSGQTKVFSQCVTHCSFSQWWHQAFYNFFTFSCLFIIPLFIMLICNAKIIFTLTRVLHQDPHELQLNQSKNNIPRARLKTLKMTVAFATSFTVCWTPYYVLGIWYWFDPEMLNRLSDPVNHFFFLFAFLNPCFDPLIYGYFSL

Substance | binding affinity to LH-RH-I receptors [1] | displacement of radiolabeled [D-Trp6]LH-RH binding [2]
[^125I][D-Trp[6]]LH-RH | high affinity binding | –
buserelin | – | completely displaced
